For test [1], the target named is Human Cot (Homo sapiens (Human), UniProt P41279). Description: High Throughput Cot Biochemical Assay. As to conditions: Cot HTRF (TR-FRET KinEASE) biochemical assay, 400 μM ATP. For orientation: TR-FRET usually uses a lanthanide donor and a delayed reading to cut background.
The test system of test [2] is TNFα. Description: Cot Monocyte TNFα Cell Based Assay.
The mark [3] stands for this setting: Homo sapiens, Monocyte, read-out: EC50 TNF, LPS-stimulated human monocytes, TNFα TR-FRET.
The mark [4] stands for this setting: read-out: EC50 TNF, LPS-stimulated human monocytes, TNFα TR-FRET.

Where two headings read alike, the source gives them in different places.

What is called IC50 is the midpoint of a concentration-inhibition curve. As a reminder, the EC50 is the concentration at which the effect is half-maximal.

Human Cot, sequence (P41279 30-397): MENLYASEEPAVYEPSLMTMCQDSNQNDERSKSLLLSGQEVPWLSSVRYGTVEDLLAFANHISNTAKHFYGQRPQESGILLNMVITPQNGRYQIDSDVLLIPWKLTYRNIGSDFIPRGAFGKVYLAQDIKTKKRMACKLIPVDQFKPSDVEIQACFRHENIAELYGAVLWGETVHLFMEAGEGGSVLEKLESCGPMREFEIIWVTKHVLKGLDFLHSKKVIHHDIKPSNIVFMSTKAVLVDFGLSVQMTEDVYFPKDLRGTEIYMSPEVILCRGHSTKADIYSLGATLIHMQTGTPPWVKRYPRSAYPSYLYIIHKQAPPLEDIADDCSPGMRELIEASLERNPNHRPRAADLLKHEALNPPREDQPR

`CC(C)(C)CNc1c(C#N)cnc2c(C#N)cc(N[C@H](c3cn(C45CC(C4)C5)nn3)c3cccc4nc(C(F)F)ccc34)cc12` [Example 901, (S)-6-(((1-(bicyclo[1.1.1]pentan-1-yl)-1H-1,2,3-triazol-4-yl)(2-(difluoromethyl)quinolin-5-yl)methyl)amino)-4-(neopentylamino)quinoline-3,8-dicarbonitrile] displayed an IC50 in test [1] (IC50 HTRF) of 0.484 µM. The EC50 in test [2] (setting [3]) worked out at 1 µM.
As to `Cc1ccc2c([C@H](Nc3cc(C#N)c4ncc(C#N)c(NCC(C)(C)C)c4c3)c3cn(C4(C)CC4)nn3)cccc2n1` [Example 902], in test [1] (read-out: IC50 HTRF), the IC50 turned out to be 0.003 µM. Moreover, the EC50 in test [2] (setting [4]) amounted to 0.036 µM.
In the case of `Cc1ncsc1[C@H](Nc1cc(C#N)c2ncc(C#N)c(NCC(C)(C)C)c2c1)c1cn(C2(C(F)(F)F)CC2)nn1` [Example 904, (R)-6-(((4-methylthiazol-5-yl)(1-(1-(trifluoromethyl)cyclopropyl)-1H-1,2,3-triazol-4-yl)methyl)amino)-4-(neopentylamino)quinoline-3,8-dicarbonitrile], in test [1] (IC50 HTRF), half-maximal inhibition (IC50) was put at 0.005 µM. In test [2] (setting [3]), the EC50 came out at 0.078 µM.
For the compound `Cc1nnc(C2(n3cc([C@@H](Nc4cc(C#N)c5ncc(C#N)c(NCC(C)(C)C)c5c4)c4ccc(F)nc4C)nn3)CC2)o1` [Example 907, (S)-6-(((6-fluoro-2-methylpyridin-3-yl)(1-(1-(5-methyl-l,3,4-oxadiazol-2-yl)cyclopropyl)-1H-1,2,3-triazol-4-yl)methyl)amino)-4-(neopentylamino)quinoline-3,8-dicarbonitrile], in test [1] (read-out: IC50 HTRF), the IC50 was determined as 0.004 µM. Also, the EC50 in test [2] (setting [4]) turned out to be 0.051 µM.
In turn, `CC(C)(C)CNc1c(C#N)cnc2c(C#N)cc(N[C@H](c3cn(C4(C(F)(F)F)CC4)nn3)c3cccc4cnc(C#N)cc34)cc12` [Example 909, (S)-6-(((3-cyanoisoquinolin-5-yl)(1-(1-(trifluoromethyl)cyclopropyl)-1H-1,2,3-triazol-4-yl)methyl)amino)-4-(neopentylamino)quinoline-3,8-dicarbonitrile] yielded a 50% inhibitory concentration (IC50) in test [1] (IC50 HTRF) of 0.008 µM. In test [2] (setting [3]), the EC50 came to 0.116 µM.
On the same counts, the results for `CC(C)(C)CNc1c(C#N)cnc2c(C#N)cc(N[C@H](c3cn(C4(C(F)(F)F)CC4)nn3)c3ccc(C#N)c4ncccc34)cc12` [Example 910, (S)-6-(((8-cyanoquinolin-5-yl)(1-(1-(trifluoromethyl)cyclopropyl)-1H-1,2,3-triazol-4-yl)methyl)amino)-4-(neopentylamino)quinoline-3,8-dicarbonitrile] are 0.005 µM and 0.148 µM.
Take `COc1nccc2c([C@H](Nc3cc(Cl)c4ncc(C#N)c(NCC(C)(C)C)c4c3)c3cn(C45CC(C4)C5)nn3)cccc12` [Example 911, (S)-6-(((1-(bicyclo[1.1.1]pentan-1-yl)-1H-1,2,3-triazol-4-yl)(1-methoxylsoquinolin-5-yl)methyl)amino)-8-chloro-4-(neopentylamino)quinoline-3-carbonitrile]: in test [1] (read-out: IC50 HTRF), the IC50 came out at 0.007 µM. Moreover, the EC50 in test [2] (setting [4]) was determined as 0.085 µM.
For the compound `COc1nccc2c([C@H](Nc3cc(Cl)c4ncc(C#N)c(NCC(C)(C)C)c4c3)c3cn(C4CC4)nn3)cccc12` [Example 912, (S)-8-chloro-6-(((1-cyclopropyl-1H-1,2,3-triazol-4-yl)(1-methoxylsoquinolin-5-yl)methyl)amino)-4-(neopentylamino)quinoline-3-carbonitrile], the IC50 in test [1] (read-out: IC50 HTRF) is 0.006 µM. For the same compound, the EC50 in test [2] (setting [4]) was 0.078 µM.
On to `COc1nccc2c([C@H](Nc3cc(Cl)c4ncc(C#N)c(NCC(C)(C)C)c4c3)c3cn(C4(C)CC4)nn3)cccc12` [Example 913, (S)-8-chloro-6-(((1-methoxylsoquinolin-5-yl)(1-(1-methylcyclopropyl)-1H-1,2,3-triazol-4-yl)methyl)amino)-4-(neopentylamino)quinoline-3-carbonitrile], for which, in test [1] (read-out: IC50 HTRF), the IC50 worked out at 0.006 µM. The EC50 in test [2] (setting [4]) amounted to 0.086 µM.
The corresponding values for `COc1nccc2c([C@H](Nc3cc(Cl)c4ncc(C#N)c(NCC(C)(C)C)c4c3)c3cn(C4(C(F)F)CC4)nn3)cccc12` [Example 914, (S)-8-chloro-6-(((1-(1-(difluoromethyl)cyclo-propyl)-1H-1,2,3-triazol-4-yl)(1-methoxylsoquinolin-5-yl)methyl)amino)-4-(neopentylamino)quinoline-3-carbonitrile] are 0.009 µM and 0.116 µM.
The compound `CC(C)(C)CNc1c(C#N)cnc2c(Cl)cc(N[C@H](c3cn(C4(C(F)(F)F)CC4)nn3)c3cccc4cnc(Cl)cc34)cc12` [Example 915, (S)-8-chloro-6-(((3-chloroisoquinolin-5-yl)(1-(1-(trifluoromethyl)cyclopropyl)-1H-1,2,3-triazol-4-yl)methyl)amino)-4-(neopentylamino)quinoline-3-carbonitrile] gave an IC50 in test [1] (IC50 HTRF) of 0.044 µM. Besides, the EC50 in test [2] (setting [3]) came out at 0.324 µM.
In test [1] (IC50 HTRF), `CC(C)(CNc1c(C#N)cnc2c(Cl)cc(N[C@H](c3cn(C45CC(C4)C5)nn3)c3ccc(F)c4ncccc34)cc12)C(F)(F)F` [Example 917, (S)-6-(((1-(bicyclo[1.1.1]pentan-1-yl)-1H-1,2,3-triazol-4-yl)(8-fluoroquinolin-5-yl)methyl)amino)-8-chloro-4-((3,3,3-trifluoro-2,2-dimethylpropyl)amino)quinoline-3-carbonitrile] came in with an IC50 of 0.003 µM. In test [2] (setting [3]), the EC50 was determined as 0.031 µM.
`CC(C)(CNc1c(C#N)cnc2c(Cl)cc(N[C@H](c3cn(C4(C(F)F)CC4)nn3)c3ccc(F)c4ncccc34)cc12)C(F)(F)F` [Example 918, (S)-8-chloro-6-(((1-(1-(difluoromethyl)cyclopropyl)-1H-1,2,3-triazol-4-yl)(8-fluoroquinolin-5-yl)methyl)amino)-4-((3,3,3-trifluoro-2,2-dimethylpropyl)amino)quinoline-3-carbonitrile] yielded an IC50 in test [1] (IC50 HTRF) of 0.003 µM. Besides, in test [2] (setting [3]), the EC50 is 0.042 µM.
The compound `CC1(n2cc([C@@H](Nc3cc(Cl)c4ncc(C#N)c(NCC(C)(C)C(F)(F)F)c4c3)c3ccc(F)c4ncccc34)nn2)CC1` [Example 919, (S)-8-chloro-6-(((8-fluoroquinolin-5-yl)(1-(1-methylcyclopropyl)-1H-1,2,3-triazol-4-yl)methyl)amino)-4-((3,3,3-trifluoro-2,2-dimethylpropyl)amino)quinoline-3-carbonitrile] showed a half-inhibitory concentration (IC50) in test [1] (IC50 HTRF) of 0.002 µM. Besides, in test [2] (setting [3]), the EC50 came to 0.049 µM.
With `CC(C)(C)CNc1c(C#N)cnc2c(Cl)cc(N[C@H](c3cn(C45CC(C4)C5)nn3)c3ccc(F)c4ncccc34)cc12` [Example 920, (S)-6-(((1-(bicyclo[1.1.1]pentan-1-yl)-1H-1,2,3-triazol-4-yl)(8-fluoroquinolin-5-yl)methyl)amino)-8-chloro-4-(neopentylamino)quinoline-3-carbonitrile], in test [1] (IC50 HTRF), the IC50 came out at 0.003 µM. The EC50 in test [2] (setting [3]) is 0.028 µM.
In turn, `CC(C)(C)CNc1c(C#N)cnc2c(Cl)cc(N[C@H](c3cn(C4(C(F)(F)F)CC4)nn3)c3ccc(Cl)c4ncccc34)cc12` [Example 921, (S)-8-chloro-6-(((8-chloroquinolin-5-yl)(1-(1-(trifluoromethyl)cyclopropyl)-1H-1,2,3-triazol-4-yl)methyl)amino)-4-(neopentylamino)quinoline-3-carbonitrile] had an IC50 in test [1] (IC50 HTRF) of 0.017 µM. Moreover, the EC50 in test [2] (setting [3]) was determined as 0.187 µM.

Values taken from patent US11066414B2, “Cot modulators and methods of use thereof” (Gilead Sciences, Inc., priority 2015, dated 2021).
